Data: BindingDB's records for doi:10.1007/s00044-011-9593-5 (n/a, 2012)

Molecular target: Integrase (Human immunodeficiency virus 1, UniProt Q7ZJM1)
Assay: Inhibition of Human immunodeficiency virus 1 integrase strand transfer activity

Sequence of Integrase (Q7ZJM1 whole entry): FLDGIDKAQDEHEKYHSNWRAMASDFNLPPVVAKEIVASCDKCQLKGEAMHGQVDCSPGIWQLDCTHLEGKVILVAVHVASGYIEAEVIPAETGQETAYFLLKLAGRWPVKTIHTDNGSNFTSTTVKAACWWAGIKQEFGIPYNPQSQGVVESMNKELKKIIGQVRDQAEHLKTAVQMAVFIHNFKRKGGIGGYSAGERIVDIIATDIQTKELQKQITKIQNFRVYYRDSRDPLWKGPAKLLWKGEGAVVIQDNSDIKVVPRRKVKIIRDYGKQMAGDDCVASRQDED

Molecule `CCN(CC)CCC[C@@H](C)Nc1ccnc2cc(Cl)ccc12` [Aralen] has an IC50 of 0.25 nM.
